Biological target: T1, Beta-amyloid (Aβ) peptide Aβ1–40 (Homo sapiens, UniProt P05067)
T1 construct: gene APP; Aβ1–40 (Aβ1–42 and Aβ25–35 also measured)
Test: Thioflavin T fibril formation assay on the isolated peptide, […] hr at […] °C; electron microscopy (Aβ[…] and Aβ[…])
Assay type: biochemical

T1 sequence (P05067 672-711 limits assumed): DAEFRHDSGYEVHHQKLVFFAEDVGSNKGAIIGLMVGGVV

- IC50: ~10 µM
Compound: CCN1C=CC(=CC=C(C=Cc2cc[n+](CC)c3ccccc23)c2cc[n+](CC)c3ccccc23)c2ccccc21 [NK-4, 4,4′-[3-{2-(1-ethyl-4(1H)-quinolylidene)ethylidene}propenylene] bis(1-ethylquinolinium iodide)]

— article PMC3251615, “Effects of NK-4 in a Transgenic Mouse Model of Alzheimer's Disease” (PLoS ONE, 2012)
